Data as given in patent US6927039B2, “Enzymatic process” (Nanobiodesign Limited, priority 2000, dated 2005).
Where two headings read alike, the source gives them in different places.

Legend:
E.coli BL21(DE3) cells = experiment: Toxicity of substrate to the whole cells used in the assay; format: cell-based
Protocol: When the initial rate of AA, LA, and SDS oxidation was plotted against substrate concentration a Michaelis-Menten-type curve was obtained as shown in FIG. 6. […] The kinetic parameters determined following the substrate-dependent NADPH oxidation with time in the whole-cell assay are given in Table 1. For all the three substrates the extent of uncoupling of P450 BM3 from substrate hydroxylation was also determined in a whole-cell assay. This was essentially an adaptation of the hydrogen peroxide quantification method of HRP with ABTS described for the experiments carried out on purified enzyme.
The potential lethal effect that high concentrations of substrate may have on whole cells (as in the case of arachidonic acid at concentrations higher than 170 μM, FIG. 7A.) can be overcome without loss of sensitivity by successive small additions of substrate. The increase of the A360 signal with subsequent additions of SDS to whole cells expressing P450 BM3 is reported in FIG. 8, where it can be observed how the increase in the absorbance becomes limited by the NADPH concentration. At 1.5 h after NADPH addition, when SDS is supplied periodically to the cells an increase of about 45% in the NADP^+ production is seen, which should correspond to a ratio of sample A360 signal/blank signal of about 30. […]

cytochrome P450 BM3 [1] = molecular target: T1, cytochrome P450 BM3 (Priestia megaterium, UniProt P14779); experiment: Substrate binding by spectral titration of the haem high spin band, purified enzyme (in vitro); set-up: expressed in transfected cells; host or cells: E. coli BL21(DE3) transformed with pT7Bm3Z; species or system Bacillus megaterium
T1 sequence (P14779 1-1049): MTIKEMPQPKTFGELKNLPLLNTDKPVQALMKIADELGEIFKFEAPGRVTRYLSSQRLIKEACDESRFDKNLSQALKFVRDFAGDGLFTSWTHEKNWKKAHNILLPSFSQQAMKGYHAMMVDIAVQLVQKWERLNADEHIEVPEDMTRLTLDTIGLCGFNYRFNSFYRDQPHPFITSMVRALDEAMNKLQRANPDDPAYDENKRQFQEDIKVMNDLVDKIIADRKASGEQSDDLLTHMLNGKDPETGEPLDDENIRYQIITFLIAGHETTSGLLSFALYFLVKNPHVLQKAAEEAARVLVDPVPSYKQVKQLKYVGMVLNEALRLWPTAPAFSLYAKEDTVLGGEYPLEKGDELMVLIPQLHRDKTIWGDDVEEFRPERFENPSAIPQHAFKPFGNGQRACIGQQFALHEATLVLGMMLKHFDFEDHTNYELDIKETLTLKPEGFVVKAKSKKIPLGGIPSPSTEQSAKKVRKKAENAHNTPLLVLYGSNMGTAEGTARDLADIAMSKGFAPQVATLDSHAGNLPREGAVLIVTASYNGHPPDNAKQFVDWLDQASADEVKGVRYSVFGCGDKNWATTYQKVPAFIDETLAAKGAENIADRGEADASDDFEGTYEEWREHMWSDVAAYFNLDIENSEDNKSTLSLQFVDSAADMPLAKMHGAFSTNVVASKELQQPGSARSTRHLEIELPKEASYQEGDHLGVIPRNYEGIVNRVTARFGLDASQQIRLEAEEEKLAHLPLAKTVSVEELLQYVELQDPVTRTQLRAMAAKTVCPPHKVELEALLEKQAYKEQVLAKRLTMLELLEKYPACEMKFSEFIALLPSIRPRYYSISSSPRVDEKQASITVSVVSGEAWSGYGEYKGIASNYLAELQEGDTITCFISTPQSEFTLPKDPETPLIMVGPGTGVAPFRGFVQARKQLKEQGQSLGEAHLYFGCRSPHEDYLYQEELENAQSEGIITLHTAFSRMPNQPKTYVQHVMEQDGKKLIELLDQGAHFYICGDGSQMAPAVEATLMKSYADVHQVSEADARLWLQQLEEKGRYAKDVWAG
Protocol: Substrate Binding and NADPH Consumption Assays. Substrate binding was followed in a Hewlett-Packard 8452A diode array spectrophotometer, equipped with a Hewlett-Packard peltier temperature controller 89090 by monitoring the increase in the high spin band of the haem at 390 nm, upon titration with different substrates. The dissociation constant Kd was calculated by fitting the obtained data to the equation [ES]=((ΔA390-ΔA421)max·[S]free)/(Kd+[S]free) where [ES]=(ΔA390-ΔA421)/(ΔA392-ΔA421)max·[P450 BM3] and [S]free=[S]added−[ES].
(§1) NADPH consumption was followed at 340 nm using a Δε340=6.22 mM^−1·cm^−1. Both assays were performed at 20° C. using P450 BM3 in 100 mM potassium phosphate buffer, pH 8.0. Reaction was initiated by addition to the substrate bound enzyme of NADPH to a final concentration of 130-150 μM. In the kinetics assay the rate constant kcat was calculated from the linear part of the decrease in A340 with time, which lasted at least for the first 4 sec. The enzyme concentration typically varied between 0.4 and 0.8 μM in the binding assay and between 8 and 25 nM in the catalytic assay. Substrate stock solutions were freshly prepared the day of the assay. Fatty acid stock solutions were in 50 mM potassium carbonate, SDS was easily dissolved in water, while TCE stock solutions were prepared in ethanol. If appropriate, stocks of candidate agents may be prepared in, for example, N,N-dimethylformamide just before the assay. […] The confidence interval for Kd given in the results section is the mean±the standard deviation of at least four measurements, as calculated using the software Kaleidagraph. Similarly kcat was calculated by fitting data points to the Michaelis-Menten equation. Each data point is the mean of at least four measurements.

cytochrome P450 BM3 [2] = molecular target: T1, cytochrome P450 BM3; experiment: Hydrogen peroxide determination (uncoupling) by HRP/ABTS assay, purified enzyme; format: biochemical, Bacillus megaterium; set-up: expressed in transfected cells; host or cells: E. coli BL21(DE3) transformed with pT7Bm3Z; settings: 150 μM NADPH
Protocol: Hydrogen Peroxide Determination. Uncoupled reactions were determined by measuring the production of hydrogen peroxide during substrate turnover using the horseradish peroxidase (HRP)/2′2-Azino-di(3-ethyl-benzathiazoline-6-sulphonic acid) (ABTS) assay as described by Childs and Bardsley (31). The extinction coefficient at 414 nm of the radical cation of ABTS was calculated to 32.95 mM^−1 cm^−1, in accordance with the published value. The assay mixture composition was essentially similar to that utilised during the substrate-dependent NADPH consumption assay (20-30 nM P450 BM3 in 100 mM potassium phosphate buffer pH 8.0, 150 μM NADPH, and at least 1.7 times higher substrate concentration relative to NADPH concentration). When all NADPH was consumed (as judged from the disappearance of the 340 nm peak) the hydrogen peroxide produced was measured. Uncoupling in whole cells was measured following essentially the same assay in whole cells in 100 mM potassium phosphate buffer pH 8.0 incubated with substrate and NADPH as in the alkali method.

cytochrome P450 BM3 [3] = molecular target: T1, cytochrome P450 BM3; experiment: Alkali assay of NADP+ production in whole E.coli BL21(DE3) cells expressing P450 BM3 (in vivo assay); settings: for R (Remark): substrate or no-interaction with P450 BM3; for Vmax: alkali assay; for Vmax / time at which the plateau of the A360 alkali product curve is reached: NADPH 1.5 mM; for time at which the plateau of the A360 alkali product curve is reached: substrate concentration about 0.8 mM; for substrate concentration above which the linear region of NADPH oxidation was found in the first 25 min: ~0-25 min after NADPH addition
Protocol: The hydroxylating activity of whole cells expressing cytochrome P450 BM3 was measured in terms of NADP^+ production. […] The assay has been adapted in a microtitre plate format as follows. A single colony from freshly transformed E.coli BL21(pT7Bm3Z) cells was inoculated into 170 μl LB/ampicillin (120 μg/ml) in a microtitre plate well. Cells were grown to an OD600˜0.8 before being induced with 1 mM IPTG. After incubation at 37° C. for 16 hours after induction, the cells were harvested and washed once with 100 mM potassium phosphate buffer pH 8.0. The cell pellet was stored in the −20° C. freezer before running the alkali test within the next few days. The cell pellet was then resuspended at 1:1.3 dilution in 100 mM potassium phosphate buffer pH 8.0. to give an OD600 of about 0.4, to which the substrate at the desired concentration was added (stock solutions of substrates as described for the binding and catalytic assays). A control consisting of cells in phosphate buffer added with the same amount of potassium carbonate solution or ethanol or N,N-dimethylformamide, without substrate was run for every sample. All samples were incubated at room temperature overnight. NADPH at 1.5 mM was then added to the samples and at 1 h after NADPH addition, an aliquot (typically 70 μl) was transferred in a new microtitre plate to which was added the same volume (typically 70 μl) of 0.3 M HCl, so that the final pH in the mixture is about 2. The aliquots were incubated for at least 10 min at room temperature, to ensure complete destruction of the remaining reduced NADPH. An aliquot (typically 70 μl) was then removed and transferred in a new microtitre plate with 280 μl of 9 M NaOH to yield a solution of a pH of about 14.8. The mixture was immediately mixed thoroughly and placed in the dark. The product was left to develop in dark for at least 2.5 h at room temperature, after which the absorbance at 360 nm or the emission at 455 nm (λex=360 nm) was measured.

cytochrome P450 BM3 [4] = molecular target: T1, cytochrome P450 BM3; experiment: Substrate-dependent NADPH consumption assay at 340 nm, purified enzyme (in vitro); format: biochemical, Bacillus megaterium; set-up: expressed in transfected cells; host or cells: E. coli BL21(DE3) transformed with pT7Bm3Z; settings: NADPH 130-150 μM, 20° C., pH 8.0
Protocol: as §1

[5] = 20° C., 100 mM potassium phosphate buffer pH 8.0, read-out: Kd

Structure (SMILES) | toxicity to E.coli BL21(DE3) cells (E.coli BL21(DE3) cells) | concentration above which the substrate has a lethal effect on whole cells (E.coli BL21(DE3) cells; E.coli BL21(DE3) cells expressing P450 BM3) | Kd (cytochrome P450 BM3 [1]; printed as an order-of-magnitude range in M, read-out: Kd) [µM] | % H2O2 (cytochrome P450 BM3 [2]) [%] | R (Remark) (cytochrome P450 BM3 [3]) | Kd (cytochrome P450 BM3 [1]; [5]) [µM] | ratio of sample A360 signal/blank signal (cytochrome P450 BM3 [3]; whole cells, SDS supplied periodically, 1.5 h after NADPH addition) | Vmax (cytochrome P450 BM3 [3]; whole cells) [nM NADP^+/min] | time at which the plateau of the A360 alkali product curve is reached (cytochrome P450 BM3 [3]; whole cells) [h] | substrate concentration above which the linear region of NADPH oxidation was found in the first 25 min (cytochrome P450 BM3 [3]; whole cells) | Kd (cytochrome P450 BM3 [1]; 20° C., 100 mM potassium phosphate buffer pH 8.0) | KM (cytochrome P450 BM3 [4]) | kcat (cytochrome P450 BM3 [4])
CCCCC/C=C\C/C=C\C/C=C\C/C=C\CCCC(=O)O [AA, arachidonic acid] | relatively high toxicity | higher than 170 μM | ~0.1 | 0.11 | S |  |  |  |  |  |  |  | 
ClC(Cl)C(Cl)Cl [TCE, 1,1,2,2-tetrachloroethane] |  |  |  | 0 | S | 4010 ± 830 |  |  |  |  |  |  | 
CCCCCCCCCCCCOS(=O)(=O)[O-].[Na+] [SDS, sodium dodecyl sulphate] |  |  |  | 0.63 | S | 11.5 ± 3.7 | about 30 | 18.19 ± 1.12 | 3.5 | higher than 300 μM |  |  | 
CCCCCC [n-hexane] |  |  |  |  | N |  |  |  |  |  | n.o. | n.o. | n.o.
CCCCCCCCCCCC(=O)O [LA, lauric acid] |  |  |  | 0.66 | S | 135 ± 38.2 |  | 10.26 ± 0.87 | 7 | higher than 200 μM |  |  | 
